Measured values as given in patent US20060029690A1, “Buckwheat compound and method of obtaining the same for treatment of hyperglycemia” (priority 2004, published 2006).
Like-named read-outs stand apart in the source and are kept apart here.

Assays:
[1] = tested on: alloxan diabetic mice; assay: Blood glucose level of alloxan diabetic mice at day 7 and 14; assay type: in vivo; settings: metformin 200 mg/kg
Description: (§1) The animals were made diabetic by a single intravenous injection of 70 mg/kg alloxan into the tail vein. After a period of 4 days, the treated mice were fasted for 2 hours, then the blood sample was taken from the treated mice intravenously. The blood glucose concentration was determined using Glucose Oxidase Peroxidase method. The mice with the blood glucose concentration above 200 mg/dl were marked diabetic mice and were used for further experiments.
(§2) The mice were divided into 5 groups, each group having 9 mice.
(§3) Group 5 received reagent (3) at the dose of 5 g/kg (p.o.).
(§4) At day 7 and 14, measurements of blood glucose concentration were taken after fasting for 2.5 and 5 hours. The change of glucose concentration by percentage was compared against the control group. Blood triglyceride and cholesterol concentrations were tested at day 14 (enzymatic method). Glucose tolerance test (2.0 g/kg, p.o.) was conducted at day 19. First, the mice were fasted for half an hour before the administration of control and test substances. Two and half hours later, the mice received glucose at the dose of 2 g/kg, po. Blood samples were taken at 0, 30, 60, 120 minutes after administration of the glucose. Blood glucose concentration (mg/dl) of the mice were determined and the related measurements of Area Under the Curve (AUC) were estimated. The serum superoxide dismutase (SOD) level of blood samples taken at 0 minute was tested. Glucose tolerance test was conducted again at day 22. The mice were fasted for 1 hour before administration. One and half hour after administration, the mice received glucose at the dose of 2 g/kg, po Blood samples were taken at 0, 30 60, 120 minutes.

[2] = tested on: alloxan diabetic mice; assay: Blood lipid level (cholesterol, triglyceride) of alloxan diabetic mice at day 14; assay type: in vivo; settings: metformin 200 mg/kg, others 5000 mg/kg
Description: as §1, §2, §3
as §4, with “The serum superoxide dismutase (SOD) level of blood samples taken at 0 minute was tested. Glucose tolerance test was conducted again at day 22. The mice were fasted for 1 hour before administration. One and half hour after administration, the mice received glucose at the dose of 2 g/kg, po Blood samples were taken at 0, 30 60, 120 minutes.” left out

[3] = tested on: alloxan diabetic mice; assay: Serum SOD level of alloxan diabetic mice at day 19; assay type: in vivo; settings: metformin 200 mg/kg, others 5000 mg/kg
Description: as §1, §2, §3
as §4, with “The serum superoxide dismutase (SOD) level of blood samples taken at 0 minute was tested. Glucose tolerance test was conducted again at day 22. The mice were fasted for 1 hour before administration. One and half hour after administration, the mice received glucose at the dose of 2 g/kg, po Blood samples were taken at 0, 30 60, 120 minutes.” left out

[4] = tested on: alloxan diabetic mice; assay: Glucose tolerance test and AUC in alloxan diabetic mice (day 19 and day 22); assay type: in vivo; settings: for Blood glucose, glucose tolerance test, 0 min: metformin 200 mg/kg, others 5 g/kg
Description: as §1, §2, §3, §4

[5] = tested on: STZ diabetic rats; assay: Fasting blood glucose concentration in STZ diabetic rats after 7 days (Example 1); assay type: in vivo, rat; settings: oral administration for 7 days, metformin 0.2 g/kg, extracts 5.0 g/kg
Description: (§5) The treatments were administered once every day.
At day 7, the rats in groups 1, 2 and 3 were fasted and blood samples were taken at 2.5 hours and 5 hours after fasting began. Blood glucose concentrations (mg/dl) in these samples were then determined.

[6] = tested on: STZ diabetic rats; assay: Non-fasting blood glucose, serum SOD activity and catalase (CAT) activity in STZ diabetic rats at day 19; assay type: in vivo, rat; settings: oral administration for 19 days
Description: as §5
At day 19, blood samples were taken, and blood glucose concentrations without fasting, the activities of SOD and catalase (CAT) levels were determined.

[7] = tested on: STZ diabetic rats; assay: Oral glucose tolerance test in STZ diabetic rats after 12 days (Example 2); assay type: in vivo, rat; settings: 12 days oral, dosage 0.2 g/kg
Description: […] were divided according to the blood glucose concentration under fasting conditions.
The STZ diabetic rats were divided into 4 groups, each group having 10 rats.
At day 12, oral glucose tolerance tests (2.0 g/kg) were conducted. […] 1 hour later, the rats received glucose at the dose of 2 g/kg (p.o.). Blood samples were taken at 0, 30 and 120 min respectively.

[8] = tested on: STZ diabetic rats; settings: 7 days oral, dosage 0.2 g/kg
Description: The mice were divided according to the blood glucose concentration under fasting conditions. The difference between the average blood glucose concentrations of the 4 groups of rats was less than 10 mg/dl.
At day 7, fasting blood glucose concentration was tested after 2.5 and 5 hours of fasting. The change of glucose concentration by percentage was compared against the control group.

[9] = Body weight of STZ diabetic rats after 9, 14 and 21 days; settings: STZ diabetic rat; metformin 0.2 g/kg, flavonoids 4.0 g/kg, extracts 5.0 g/kg
Description: (§6) Male rats (Sprague-Dwaley, male), weighing 120 to 140 g, were purchased from VTLF Experiment Animal Technology Center Company Ltd., Beijing P. R. China The animals were made diabetic by a single intraperitoneal injection of streptozocin (freshly prepared in 0.1 M citrate buffer (pH 4.5) at the dose of 58 mg/kg). After a period of 4 days, the treated rats were fasted for 2.5 hours, then blood samples were taken from the treated rats intravenously. Blood glucose concentrations were determined using the Glucose Oxidase Peroxidase method. The rats with blood glucose concentrations above 190 mg/dl were marked as diabetic rats and used for further experiments.
(§7) The rats were divided into 6 groups of 10 rats per group. The difference in the average blood glucose concentrations among the 6 groups was less than 10 mg/dl. Group 1 served as the negative control and received water. […] The remaining four groups received reagents (1) to (4) as listed in Section 1.3.1 above. Reagents (1) and (2) were administered at a dose of 4 g/kg, while (3) and (4) were administered at a dose of 5 g/kg. The treatments were administered once every day.

[10] = tested on: STZ diabetic rats; assay: Glucose tolerance test and AUC in STZ diabetic rats (day 14 and day 21)
Description: as §6, §7
At day 14, glucose tolerance tests were conducted. The rats were fasted for 1 hour before receiving the reagents at dosages of 2.0 g/kg (p.o.). Blood samples were taken at 0, 30, 60, and 120 min after receiving the reagents. Blood glucose concentrations (mg/dl) were determined and the related AUC were calculated.
At day 21, glucose tolerance tests were conducted. The rats were fasted for 1 hour, then received their respective reagents at the dose of 5 g/kg (p.o.). 2.5 hours after administration of reagent the rats received glucose at a dose of 2 g/kg (p.o.). Blood samples were taken at 0, 30, and 120 minutes after glucose administration. Blood glucose concentrations (mg/dl) were determined and the related AUC were calculated.

[11] = day 19, glucose 2 g/kg p.o. 2.5 h after administration
[12] = day 22, glucose 2 g/kg p.o. 1.5 h after administration
[13] = oral administration for 14 days
[14] = oral administration for 21 days

CN(C)C(=N)N=C(N)N [Metformin, metformin]
effective in lowering blood glucose concentration in alloxan diabetic mice (in words) ([1]; continuously for 7 and 14 days, extracts 5 g/kg): significant glucose-lowering effect | Blood glucose concentration at day 7, 2.5 hr after administering ([1]; day 7, 2.5 hr, p.o. once daily, extracts and flavonoid B 5000 mg/kg): 216.8 ± 78.2 mg/dL | Blood glucose concentration at day 7, 5 hr after administering ([1]; day 7, 5 hr, p.o. once daily, others 5000 mg/kg): 182.8 ± 88.1 mg/dL | Blood glucose concentration at day 14, 2.5 hr after administering ([1]; day 14, 2.5 hr, p.o. once daily, others 5000 mg/kg): 281.5 ± 60.9 mg/dL | Blood glucose concentration at day 14, 5 hr after administering ([1]; day 14, 5 hr, p.o. once daily, others 5000 mg/kg): 221.7 ± 65.9 mg/dL | blood glucose change by percentage, day 7, 2.5 hr ([1]; versus control group, day 7, 2.5 hr, others 5000 mg/kg): 34% | blood glucose change by percentage, day 7, 5 hr ([1]; versus control group, day 7, 5 hr, others 5000 mg/kg): 32.4% | blood glucose change by percentage, day 14, 2.5 hr ([1]; versus control group, day 14, 2.5 hr, others 5000 mg/kg): 21.2% | blood glucose change by percentage, day 14, 5 hr ([1]; versus control group, day 14, 5 hr, others 5000 mg/kg): 21.3% | Blood cholesterol [2]: 159.8 ± 48.7 mg/dL | Blood triglyceride [2]: 132.8 ± 34.2 mg/dL | Serum SOD [3]: 78.3 ± 26.5 u/mg | Blood glucose, glucose tolerance test, 30 min [4, 11]: 544.4 ± 45.3 mg/dL | Blood glucose, glucose tolerance test, 60 min [4, 11]: 512.0 ± 76.9 mg/dL | Blood glucose, glucose tolerance test, 120 min [4, 11]: 408.4 ± 71.3 mg/dL | Blood glucose, glucose tolerance test, 0 min [4, 11]: 346.8 ± 68.3 mg/dL | Blood glucose, glucose tolerance test, 30 min [4, 12]: 474.5 ± 74.4 mg/dL | Blood glucose, glucose tolerance test, 60 min [4, 12]: 450.7 ± 80.1 mg/dL | Blood glucose, glucose tolerance test, 120 min [4, 12]: 358.6 ± 88.3 mg/dL | Blood glucose, glucose tolerance test, 0 min [4, 12]: 377.6 ± 87.6 mg/dL | Fasting blood glucose concentration, 5.0 hr. ([5]; flavonoids 4.0 g/kg): 185.6 ± 78.8 mg/dL | fasting blood glucose concentration, 2.5 hr. ([5]; flavonoids A and B 4.0 g/kg): 261.1 ± 45.7 mg/dL | CAT activity [6]: 64.6 ± 12.5 U/gHb | Serum SOD activity [6]: 164.8 ± 16.9 NU/ml | Non-fasting blood glucose concentration ([6]; metformin 0.2 g/kg, flavonoids 4.0 g/kg, extracts 5.0 g/kg): 340.5 ± 40.7 mg/dL | AUC [7]: 800.9 ± 103.2 mg·h/dL | Fasting blood glucose concentration, oral glucose tolerance, 0 min [7]: 398.4 ± 36.6 mg/dL | Fasting blood glucose concentration, oral glucose tolerance, 30 min [7]: 458.4 ± 59.7 mg/dL | Fasting blood glucose concentration, oral glucose tolerance, 120 min [7]: 323.9 ± 51.2 mg/dL | reduction of AUC by percentage ([7]; versus control): (14.2) % | fasting blood glucose concentration, 2.5 hr. [8]: 357.2 ± 51.5 mg/dL | fasting blood glucose concentration, 5 hr. [8]: 288.9 ± 68.8 mg/dL | reduction of blood glucose concentration by percentage, 2.5 hr. ([8]; versus control): (11.7) % | reduction of blood glucose concentration by percentage, 5 hr. ([8]; versus control): (22.5) % | weight at day 9 [9]: 203.3 ± 22.3 g | weight at day 14 [9]: 200.4 ± 29.4 g | AUC of blood glucose [10, 13]: 652.5 ± 133.8 mg·h/dL | blood glucose concentration, glucose tolerance test, 30 min [10, 13]: 356.2 ± 93.3 mg/dL | blood glucose concentration, glucose tolerance test, 60 min [10, 13]: 320.9 ± 64.6 mg/dL | blood glucose concentration, glucose tolerance test, 120 min [10, 13]: 296.6 ± 72.6 mg/dL | blood glucose concentration, glucose tolerance test, 0 min ([10]; oral administration for 14 days, metformin 0.2 g/kg, flavonoids 4.0 g/kg, extracts 5.0 g/kg): 341.8 ± 44.8 mg/dL | AUC of blood glucose [10, 14]: 645.4 ± 122.0 mg·h/dL | blood glucose concentration, oral glucose tolerance, 30 min [10, 14]: 358.0 ± 77.3 mg/dL | blood glucose concentration, oral glucose tolerance, 120 min [10, 14]: 279.8 ± 51.6 mg/dL
